Literature values, collected in patent US8242172B2, “2,2-dimethylbutyric acid oral pharmaceutical compositions” (Trustees of Boston University, priority 1998, dated 2012).

Assays:
CF patients = settings: human, in vivo
ΔF508-CFTR [1] = target: T1, ΔF508-CFTR (Homo sapiens, UniProt P13569, DEL508-508); parameters: primary cultures of nasal polyp epithelia from CF patients (ΔF508 homozygous or heterozygous); endogenous in cells; host or cells: primary nasal polyp epithelia from CF patients; IB3-1 CF bronchial epithelial cell line; settings: IB3-1 cells, 2.5 mM
ΔF508-CFTR [2] = target: T1, ΔF508-CFTR; parameters: primary cultures of nasal polyp epithelia from CF patients (ΔF508 homozygous or heterozygous); endogenous in cells; host or cells: primary nasal polyp epithelia from CF patients; IB3-1 CF bronchial epithelial cell line; settings: 0.1 and 2 mM, up to 7 days in culture; primary nasal polyp epithelia from CF patients or IB3-1
ΔF508-CFTR [3] = settings: IB3-1 cells, 0.1-1 mM; primary nasal epithelia, 5 mM
ΔF508-CFTR [4] = settings: 5 mM, 24 hours, C-127 cells
ΔF508-CFTR [5] = target: T1, ΔF508-CFTR; settings: up to 300 mM
IB3-1 cells = settings: equimolar concentrations (1-2 mM)
ΔF508-CFTR [6] = target: T1, ΔF508-CFTR; settings: 1 M or 10%

T1 sequence (P13569 with tags, fused parts or gaps DEL508-508): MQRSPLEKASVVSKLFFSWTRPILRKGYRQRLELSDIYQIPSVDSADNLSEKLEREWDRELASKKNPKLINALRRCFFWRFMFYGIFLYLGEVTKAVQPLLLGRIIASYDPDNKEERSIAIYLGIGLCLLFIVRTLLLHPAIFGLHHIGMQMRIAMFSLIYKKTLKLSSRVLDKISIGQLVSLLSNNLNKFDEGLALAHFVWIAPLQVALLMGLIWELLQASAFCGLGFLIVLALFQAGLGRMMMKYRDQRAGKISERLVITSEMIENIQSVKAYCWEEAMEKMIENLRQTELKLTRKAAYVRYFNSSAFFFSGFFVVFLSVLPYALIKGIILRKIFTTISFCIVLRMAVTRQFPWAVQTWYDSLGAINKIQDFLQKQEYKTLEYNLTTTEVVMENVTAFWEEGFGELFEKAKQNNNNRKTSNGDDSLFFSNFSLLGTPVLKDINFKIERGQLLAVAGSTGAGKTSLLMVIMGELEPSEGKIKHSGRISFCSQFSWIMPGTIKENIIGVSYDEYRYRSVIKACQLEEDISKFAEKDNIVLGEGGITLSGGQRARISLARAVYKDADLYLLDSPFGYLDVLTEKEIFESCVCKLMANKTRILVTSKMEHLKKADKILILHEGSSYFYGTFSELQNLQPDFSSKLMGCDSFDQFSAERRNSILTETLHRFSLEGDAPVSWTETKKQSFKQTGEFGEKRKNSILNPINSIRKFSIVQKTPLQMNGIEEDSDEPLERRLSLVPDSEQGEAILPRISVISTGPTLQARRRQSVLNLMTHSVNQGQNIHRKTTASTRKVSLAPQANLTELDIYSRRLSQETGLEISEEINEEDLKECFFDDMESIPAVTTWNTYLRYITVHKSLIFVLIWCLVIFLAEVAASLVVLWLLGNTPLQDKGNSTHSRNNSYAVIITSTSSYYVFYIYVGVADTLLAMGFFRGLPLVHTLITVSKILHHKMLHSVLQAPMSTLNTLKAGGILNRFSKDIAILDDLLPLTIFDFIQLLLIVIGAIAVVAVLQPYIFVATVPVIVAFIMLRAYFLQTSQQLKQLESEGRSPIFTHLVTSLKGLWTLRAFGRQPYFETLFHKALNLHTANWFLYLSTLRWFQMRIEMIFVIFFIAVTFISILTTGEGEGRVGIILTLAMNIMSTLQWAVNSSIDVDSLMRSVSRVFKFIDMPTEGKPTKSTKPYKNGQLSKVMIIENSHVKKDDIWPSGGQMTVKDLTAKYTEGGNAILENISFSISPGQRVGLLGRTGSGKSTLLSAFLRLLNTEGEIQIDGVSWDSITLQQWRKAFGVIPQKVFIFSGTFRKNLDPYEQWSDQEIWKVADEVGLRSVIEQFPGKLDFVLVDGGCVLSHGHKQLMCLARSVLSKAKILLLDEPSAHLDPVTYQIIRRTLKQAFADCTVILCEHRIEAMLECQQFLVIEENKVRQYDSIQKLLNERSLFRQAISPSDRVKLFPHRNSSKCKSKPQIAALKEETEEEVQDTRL

O=C(O)CCCc1ccccc1 [4PBA, 4-phenylbutyrate]
clinical tolerability (CF patients): not well tolerated
protein kinase A-activated, linear, 10 pS chloride channels at plasma membrane (ΔF508-CFTR [1]): chloride channels appeared at the plasma membrane
forskolin-activated chloride secretion (ΔF508-CFTR [2]): restoration of forskolin-activated chloride secretion
higher molecular mass forms of CFTR (immunoblot) (ΔF508-CFTR [3]): appearance of higher molecular mass forms of CFTR

arginine butyrate
effectiveness at continuous administration (thalassemic patients; continuous administration at about 2000 mg/kg patient weight): effective
benefit measured by rise in fetal hemoglobin levels (thalassemic patients; pulses, about 400 to 1500 mg/kg, thalassemic patients): surprisingly more beneficial

CCCC(=O)O [butyrate, butyric acid]
~180-kD mature glycosylated species of CFTR (ΔF508-CFTR [4]): not observed
ΔF508-CFTR mRNA by Northern analysis (ΔF508-CFTR [4]): massive increase in ΔF508-CFTR mRNA
cAMP-stimulation indicative of chloride ion transport (ΔF508-CFTR [5]): no increases in cAMP-stimulation was observed
cell morphology and growth rate (IB3-1 cells): morphologic changes in IB3-1 cells, with rounding of cells and decreased growth rate

OCC(O)CO [glycerol]
movement of ΔF508-CFTR from the ER to the plasma membrane (ΔF508-CFTR [6]): appears to facilitate movement of ΔF508-CFTR from the ER to the plasma membrane
